Test results as given in patent EP4603105A1, “PHARMACEUTICAL COMPOSITION CONTAINING CYCLIC COMPOUND HAVING SELECTIVE KRAS INHIBITORY EFFECT AGAINST HRAS AND NRAS” (CHUGAI SEIYAKU KABUSHIKI KAISHA, priority 2022, dated 2024).
Read-outs that look alike come from different tables or passages of the source.

Legend:
[1] = molecular target: GDP-bound KRAS wild-type protein (Homo sapiens, UniProt P01116); test: Binding to KRAS by surface plasmon resonance (SPR), dissociation constant KD
In short: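 Compound binding is evaluated by SPR single-cycle kinetics, with concentrations added intermittently from low to high for 75 s each. Target surfaces carry GDP-loaded biotinylated Avi-RAS at about 100–300 RU, regenerated after each cycle; temperature 30°C. A 1:1 binding model gives KD.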

[2] = molecular target: GDP-bound NRAS wild-type protein (Homo sapiens, UniProt P01111); test: Binding to NRAS by surface plasmon resonance (SPR), KD and KD ratio to KRAS
GDP-bound NRAS wild-type protein, sequence (P01111 whole entry): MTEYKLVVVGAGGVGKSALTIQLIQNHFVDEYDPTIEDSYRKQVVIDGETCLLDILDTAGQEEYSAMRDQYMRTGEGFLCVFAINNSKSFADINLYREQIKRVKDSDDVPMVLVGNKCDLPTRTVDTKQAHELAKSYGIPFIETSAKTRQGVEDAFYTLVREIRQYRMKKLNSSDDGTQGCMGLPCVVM
In short: (§1)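 Affinity is measured by surface plasmon resonance at 30°C against captured, GDP-loaded RAS carrying a biotinylated Avi tag. Compounds are titrated by single-cycle kinetics, and KD comes from a 1:1 fit.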

HRAS wild-type protein = HRAS wild-type protein (Homo sapiens, UniProt P01112); test: Binding to HRAS by surface plasmon resonance (SPR), KD and KD ratio to KRAS
HRAS wild-type protein, sequence (P01112 whole entry): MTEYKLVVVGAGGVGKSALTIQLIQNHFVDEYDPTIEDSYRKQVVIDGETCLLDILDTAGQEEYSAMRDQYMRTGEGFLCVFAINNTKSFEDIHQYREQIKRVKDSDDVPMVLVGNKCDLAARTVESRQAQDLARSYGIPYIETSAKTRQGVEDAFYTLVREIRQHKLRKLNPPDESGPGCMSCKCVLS
In short: as §1

[3] = tested on: human lung cancer strain NCI-H441; test: NCI-H441 cell proliferation inhibitory activity (CellTiter-Glo, 4 days); format: cell-based; conditions: read-out: NCl-H441 IC50
In short: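 Readout: […] after the ATP-based reagent. Compound: serial dilutions in dimethyl sulfoxide.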

[4] = ratio of KD for GDP-bound NRAS wild-type protein to KD for KRAS
[5] = ratio of KD for HRAS wild-type protein to KD for KRAS
[6] = Single Cycle Kinetics, 1:1 binding model
[7] = ratio of KD with respect to GDP-bound NRAS wild-type protein to KD with respect to KRAS
[8] = ratio of KD with respect to HRAS wild-type protein to KD with respect to KRAS
[9] = 50% proliferation inhibitory concentration, four days

GDP-bound KRAS wild-type protein, sequence (P01116 1-188 isoform P01116-2): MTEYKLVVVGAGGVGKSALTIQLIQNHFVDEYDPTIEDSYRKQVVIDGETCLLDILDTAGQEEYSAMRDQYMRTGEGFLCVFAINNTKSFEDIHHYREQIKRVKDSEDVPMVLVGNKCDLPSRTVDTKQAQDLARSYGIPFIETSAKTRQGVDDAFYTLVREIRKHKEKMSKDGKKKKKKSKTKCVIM

Row | SMILES | Kd ([1]; Single Cycle Kinetics) | NRAS /KRAS [2, 4] | HRAS /KRAS (HRAS wild-type protein; [5]) | IC50 ([3]; NCI-H441 cells, 4 days) | Kd ([1]; 1:1 binding model) | Kd [1, 6] | NRAS /KRAS [2, 7] | HRAS /KRAS (HRAS wild-type protein; [8]) | IC50 [3, 9]
1 | CCC[C@H]1C(=O)N[C@@H]([C@@H](C)CC)C(=O)N(C)CC(=O)N(C)[C@H]2C/C=C\CCN(C2=O)[C@@H](Cc2ccc(C)cc2)C(=O)N(C)CC(=O)N[C@@H](CCc2ccc(C(F)(F)F)c(Cl)c2)C(=O)N2CC3(CC3)C[C@H]2C(=O)NC2(CCC2)C(=O)N(C)[C@@H]([C@@H](C)CC)C(=O)N(C)[C@H](C(=O)N(C)C)CC(=O)N1C [PP3426] | 0.36 nM | A (a compound having 10 or more and less than 20 is denoted as A) | A (a compound having 10 or more and less than 20 is denoted as A) | 17.2 nM | – | – | – | – | –
2 | CCO[C@@H]1C[C@H]2C(=O)NC3(CC(C)(C)C3)C(=O)N(C)[C@@H](C3CCCC3)C(=O)N(C)[C@H](C(=O)N(C)CC)CC(=O)N(C)[C@@H]([C@H](C)OC)C(=O)N[C@@H]([C@@H](C)CC)C(=O)N(C)CC(=O)N(C)[C@H]3C/C=C\CCN(C3=O)[C@@H](Cc3ccc(C)cc3)C(=O)N(C)CC(=O)N[C@@H](CCc3cc(F)c(C(F)(F)F)c(F)c3)C(=O)N2C1 [PP3226] | 0.3 nM | A (a compound having 10 or more and less than 20 is denoted as A) | B (a compound having 3 or more and less than 10 is denoted as B) | 12.4 nM | – | – | – | – | –
3 | C=C(C)C[C@H]1C(=O)N(C)[C@H](C(=O)N(C)C)CC(=O)N(C)[C@@H](CCC)C(=O)N[C@@H]([C@@H](C)CC)C(=O)N(C)CC(=O)N(C)[C@H]2C/C=C\CCN(C2=O)[C@@H](Cc2ccc(C(F)(F)F)cc2)C(=O)N(C)CC(=O)N[C@@H](CCc2cc(F)c(C(F)(F)F)c(F)c2)C(=O)N2C[C@H](OCC)C[C@H]2C(=O)N(C)C2(CCC2)C(=O)N1C [PP3337] | 1.3 nM | A (a compound having 10 or more and less than 20 is denoted as A) | A (a compound having 10 or more and less than 20 is denoted as A) | 65.5 nM | – | – | – | – | –
4 | CCC[C@H]1C(=O)N[C@@H]([C@@H](C)CC)C(=O)N(C)CC(=O)N(C)[C@H]2C/C=C\CCN(C2=O)[C@@H](Cc2ccc(C)cc2)C(=O)N(C)CC(=O)N[C@@H](CCc2ccc(C(F)(F)F)c(Cl)c2)C(=O)N2CC3(CC3)C[C@H]2C(=O)NC2(CCC2)C(=O)N(C)[C@@H](C(CC)CC)C(=O)N(C)[C@H](C(=O)N(C)C)CC(=O)N1C [PP3424] | 0.48 nM | AA (a compound having 20 or more is denoted as AA) | A (a compound having 10 or more and less than 20 is denoted as A) | 27.2 nM | – | – | – | – | –
5 | CCO[C@H](C)[C@@H]1NC(=O)[C@H](CC(C)C)N(C)C(=O)C[C@@H](C(=O)N(C)C)N(C)C(=O)[C@H](C2CCCC2)N(C)C(=O)C2(CC(C)(C)C2)NC(=O)[C@@H]2C[C@H](C)CN2C(=O)[C@H](CCc2ccc(C(F)(F)F)c(OC)c2)NC(=O)CN(C)C(=O)[C@H](Cc2ccc(C)cc2)N2CC/C=C\C[C@@H](C2=O)N(C)C(=O)[C@@H]2CCCN2C1=O [PP2418] | – | A (a compound having 10 or more and less than 20 is denoted as A) | B (a compound having 3 or more and less than 10 is denoted as B) | 132 nM | 0.97 nM | – | – | – | –
6 | CCCO[C@@H]1C[C@H]2C(=O)NC3(CC(C)(C)C3)C(=O)N(C)[C@@H](C3CCCC3)C(=O)N(C)[C@H](C(=O)N(C)CC)CC(=O)N(C)[C@@H](COCC)C(=O)N[C@@H]([C@@H](C)CC)C(=O)N3C[C@@H](C)C[C@H]3C(=O)N(C)[C@H]3C/C=C\CCN(C3=O)[C@@H](Cc3ccc(C(F)(F)F)cc3)C(=O)N(C)CC(=O)N[C@@H](CCc3cc(F)c(C(F)(F)F)c(F)c3)C(=O)N2C1 [PP3472] | 3 nM | A (a compound having 10 or more and less than 20 is denoted as A) | A (a compound having 10 or more and less than 20 is denoted as A) | 24.3 nM | – | – | – | – | –
7 | CCCC[C@H]1C(=O)N[C@@H]([C@@H](C)CC)C(=O)N(C)CC(=O)N(C)[C@H]2C/C=C\CCN(C2=O)[C@@H](Cc2ccc(C(F)(F)F)cc2)C(=O)N(C)CC(=O)N[C@@H](CCc2ccc(C(F)(F)F)c(OC)c2)C(=O)N2C[C@H](OCC)C[C@H]2C(=O)OC2(CCC2)C(=O)N(C)[C@@H](C2CCCC2)C(=O)N(C)[C@H](C(=O)N(C)C)CC(=O)N1C [PP3367] | 0.18 nM | A (a compound having 10 or more and less than 20 is denoted as A) | A (a compound having 10 or more and less than 20 is denoted as A) | 8.5 nM | – | – | – | – | –
8 | C=C(C)C[C@H]1C(=O)N(C)[C@H](C(=O)N(C)C)CC(=O)N(C)[C@@H](CCC)C(=O)N[C@@H]([C@@H](C)CC)C(=O)N(C)CC(=O)N(C)[C@H]2C/C=C\CCN(C2=O)[C@@H](Cc2ccc(C(F)(F)F)cc2)C(=O)N(C)CC(=O)N[C@@H](CCc2ccc(C(F)(F)F)c(OC)c2)C(=O)N2C[C@H](OCC)C[C@H]2C(=O)N(C)C2(CCC2)C(=O)N1C [PP3332] | 0.86 nM | A (a compound having 10 or more and less than 20 is denoted as A) | B (a compound having 3 or more and less than 10 is denoted as B) | 29.3 nM | – | – | – | – | –
9 | CCCO[C@@H]1C[C@H]2C(=O)NC3(CC(C)(C)C3)C(=O)N(C)[C@@H](C3CCCC3)C(=O)N(C)[C@H](C(=O)N(C)CC)CC(=O)N(C)[C@@H](COCC)C(=O)N[C@@H]([C@@H](C)CC)C(=O)N3C[C@@H](F)C[C@H]3C(=O)N(C)[C@H]3C/C=C\CCN(C3=O)[C@@H](Cc3ccc(C)cc3)C(=O)N(C)CC(=O)N[C@@H](CCc3cc(F)c(C(F)(F)F)c(F)c3)C(=O)N2C1 [PP3461] | 0.35 nM | A (a compound having 10 or more and less than 20 is denoted as A) | A (a compound having 10 or more and less than 20 is denoted as A) | 19.1 nM | – | – | – | – | –
10 | CCO[C@@H]1C[C@H]2C(=O)NC3(CC(C)(C)C3)C(=O)N(C)[C@@H](C3CCCC3)C(=O)N(C)[C@H](C(=O)N3CCCCC3)CC(=O)N(C)[C@@H](COC)C(=O)N[C@@H]([C@@H](C)CC)C(=O)N(C)CC(=O)N(C)[C@H]3C/C=C\CCN(C3=O)[C@@H](Cc3ccc(C(F)(F)F)cc3)C(=O)N(C)CC(=O)N[C@@H](CCc3ccc(Cl)c(Cl)c3)C(=O)N2C1 [PP2670] | – | AA (a compound having 20 or more is denoted as AA) | A (a compound having 10 or more and less than 20 is denoted as A) | 25.2 nM | 0.48 nM | – | – | – | –
11 | CCCOC[C@H]1C(=O)N[C@@H]([C@@H](C)CC)C(=O)N(C)CC(=O)N(C)[C@H]2C/C=C\CCN(C2=O)[C@@H](Cc2ccc(C(F)(F)F)cc2)C(=O)N(C)CC(=O)N[C@@H](CCc2cc(F)c(C(F)(F)F)c(F)c2)C(=O)N2C[C@H](OCC)C[C@H]2C(=O)NC2(CC(C)(C)C2)C(=O)N(C)[C@@H](C2CCCC2)C(=O)N(C)[C@H](C(=O)N(C)C)CC(=O)N1C [PP1398] | – | – | – | – | – | 0.032 nM | A (a compound having 10 or more and less than 20 is denoted as A) | A (a compound having 10 or more and less than 20 is denoted as A) | 2.3 nM
12 | CCO[C@@H]1C[C@H]2C(=O)NC3(CC(C)(C)C3)C(=O)N(C)[C@@H](C3CCCC3)C(=O)N(C)[C@H](C(=O)N(C)C)CC(=O)N(C)[C@@H](CC(C)C)C(=O)N[C@@H]([C@@H](C)CC)C(=O)N(C)CC(=O)N(C)[C@H]3C/C(F)=C\CCN(C3=O)[C@@H](Cc3ccc(C)cc3)C(=O)N(C)CC(=O)N[C@@H](CCc3cc(F)c(C(F)(F)F)c(F)c3)C(=O)N2C1 [PP3513] | 0.14 nM | B (a compound having 3 or more and less than 10 is denoted as B) | B (a compound having 3 or more and less than 10 is denoted as B) | 8.6 nM | – | – | – | – | –
13 | CCO[C@@H]1C[C@H]2C(=O)NC3(CCCC3)C(=O)N(C)[C@@H](C3CCCC3)C(=O)N(C)[C@H](C(=O)N(C)C)CC(=O)N(C)[C@@H](CC(C)C)C(=O)N[C@@H]([C@@H](C)CC)C(=O)N(C)CC(=O)N(C)[C@H]3C/C=C\CCN(C3=O)[C@@H](CC3CCCCC3)C(=O)N(C)CC(=O)N[C@@H](CCc3cc(F)c(C(F)(F)F)c(F)c3)C(=O)N2C1 [PP1473] | – | – | – | – | – | 0.19 nM | A (a compound having 10 or more and less than 20 is denoted as A) | A (a compound having 10 or more and less than 20 is denoted as A) | 36.6 nM
14 | CCO[C@@H]1C[C@H]2C(=O)NC3(CCC3)C(=O)N(C)[C@@H](C(CC)CC)C(=O)N(C)[C@H](C(=O)N(C)C)CC(=O)N(C)[C@@H](C)C(=O)N[C@@H]([C@@H](C)CC)C(=O)N(C)CC(=O)N(C)[C@H]3C/C=C\CCN(C3=O)[C@@H](Cc3ccc(C(F)(F)F)cc3)C(=O)N(C)CC(=O)N[C@@H](CCc3ccc4sccc4c3)C(=O)N2C1 [PP1222] | – | – | – | – | – | 1.2 nM | A (a compound having 10 or more and less than 20 is denoted as A) | A (a compound having 10 or more and less than 20 is denoted as A) | 301 nM
15 | C=CCN1CC(=O)N(C)[C@H]2C/C=C\CCN(C2=O)[C@@H](Cc2ccc(C(F)F)cc2)C(=O)N(C)CC(=O)N[C@@H](CCc2cc(F)c(C(F)(F)F)c(F)c2)C(=O)N2C[C@H](OC(C)C)C[C@H]2C(=O)N(C)C2(CCC2)C(=O)N(C)[C@@H](C(CC)CC)C(=O)N(C)[C@H](C(=O)N(C)C)CC(=O)N(C)[C@@H](COCCC)C(=O)N[C@@H]([C@@H](C)OCCC)C1=O [PP3486] | 0.61 nM | A (a compound having 10 or more and less than 20 is denoted as A) | A (a compound having 10 or more and less than 20 is denoted as A) | 12.6 nM | – | – | – | – | –
